Data reported in patent US20240239759A1, “ISOXAZOLINE COMPOSITIONS AND THEIR USE AS ANTIPARASITICS” (Intervet Inc., priority 2007, published 2024).
Read-outs that look alike come from different tables or passages of the source.

Experiments:
[1] = Side effects in dogs (Example 5); type: in vivo; details: beagles; oral 20 mg/kg or topical 200 ppm
Experimental: (§1) On Day Zero, one group of 4 beagles was treated orally with gelatin capsules containing 20 mg/kg body weight of […]. Another group of 4 beagles was treated topically by washing with 2 L of solution containing 200 ppm body weight of […] dissolved in DMF-premix/tap water (1:100, based on volume). Finally, a group of 3 beagles remained untreated as the negative control. Two days before treatment on Day Zero, all the beagles were each infested with approximately 80 unfed adult fleas (C. felis) and approximately 60 unfed adult ticks (R. sanguineus). The parasite burden of each beagle was assessed on Day 2 (approximately 48 hr after the treatment) by removing and counting the fleas and ticks. Fleas and ticks were classified according to vitality (fleas: dead or alive; ticks: dead or alive, and engorged or not engorged). The efficacy was calculated from the mean number of vital fleas and ticks in the treated group (Mt) relative to the mean number of vital fleas and ticks in the untreated control group (Mc) using following formula: […]

[2] = test system: brown dog ticks (R. sanguineus); experiment: Further efficacy study against brown dog ticks on beagles (Example 6); type: in vivo, Rhipicephalus sanguineus
Experimental: (§2) Beagles were randomly assigned to 5 treatment groups of 4 animals each, and one untreated control group of 3 animals.
(§3) The dogs were infested with approximately 80 fleas (C. felis) and 60 ticks (R. sanguineus) on Days −2, 7, 14, 21, 28, 35, 42, and 49. Fleas and ticks were counted on Day 2 (approximately 48 h after treatment), as well as Days 9, 16, 23, 30, 37, 44, and 51 (approximately 48 hr after each post-treatment re-infestation) to evaluate the insecticidal and acaricidal activity in the treated groups. In Group B, an additional flea and tick infestation was conducted on Day 56, with a respective flea and tick count on Day 58. In addition to the flea and tick counts, blood samples were collected before the treatments, as well as approximately 2 hr, 4 hr, 8 hr, 24 hr, and 72 hr after the treatment on Day Zero, and then once on each of Days 7, 14, 21, 28, 35, 42, 49, and 56. The concentration of Compound 11-1 in blood plasma was analyzed by HPLC/MS/MS. The LOQ of this method was 5 ng/ml.

[3] = test system: cat fleas (C. felis); experiment: Efficacy against cat fleas on dogs (Example 5); type: in vivo, Ctenocephalides felis; details: beagles, Day 2 (approx. 48 hr after treatment)
Experimental: as §1

[4] = test system: cat fleas (C. felis); experiment: Further efficacy study against cat fleas on beagles (Example 6); type: in vivo, Ctenocephalides felis
Experimental: as §2, §3

[5] = test system: cat fleas (Ctenocephalides felis); experiment: Efficacy of various isoxazolines against cat fleas on mice (Example 3); type: in vivo; details: Ctenocephalides felis, po, mice, oral 20 mg/kg, infested 1 hr after treatment, read-out: Flea inhibition relative to negative control
Experimental: In this experiment, mice were randomly assigned to a treatment group or a negative control (untreated) group. Each group consisted of three mice. The mice in the treatment groups were orally administered 20 mg/kg bodyweight of various isoxazolines dissolved in 7% DMF-premix and 93% purified water (aqua ad injectabilia). The application volume of these treatments was 0.01 mL/g bodyweight. One hour after treatment, each mouse was sedated and generally infested (whole body) with 30 vital, adult fleas (C. felis). To achieve this, the sedated mice were placed into an infestation-jar, and the fleas were placed directly onto the fur. After approximately 30 minutes of feeding, fleas were recovered from the mice. Assessments for inhibition and mortality were conducted 1 hr, 24 hr, and 48 hr after each infestation. The efficacy was calculated as the percentage of inhibited fleas in the treatment groups relative to the negative control group.

[6] = test system: brown dog ticks (R. sanguineus); experiment: Efficacy against brown dog ticks on dogs (Example 5); type: in vivo, Rhipicephalus sanguineus; details: beagles, Day 2 (approx. 48 hr after treatment)
Experimental: as §1

[7] = Group A: 1 mg/kg oral tablet, Day 2
[8] = Group A: 1 mg/kg oral tablet, Day 9
[9] = Group A: 1 mg/kg oral tablet, Day 16
[10] = Group A: 1 mg/kg oral tablet, Day 23
[11] = Group A: 1 mg/kg oral tablet, Day 30
[12] = Group A: 1 mg/kg oral tablet, Day 37
[13] = Group A: 1 mg/kg oral tablet, Day 44
[14] = Group A: 1 mg/kg oral tablet, Day 51
[15] = Group B: 1 mg/kg subcutaneous injectable solution, Day 2
[16] = Group B: 1 mg/kg subcutaneous injectable solution, Day 9
[17] = Group B: 1 mg/kg subcutaneous injectable solution, Day 16
[18] = Group B: 1 mg/kg subcutaneous injectable solution, Day 23
[19] = Group B: 1 mg/kg subcutaneous injectable solution, Day 30
[20] = Group B: 1 mg/kg subcutaneous injectable solution, Day 37
[21] = Group B: 1 mg/kg subcutaneous injectable solution, Day 44
[22] = Group B: 1 mg/kg subcutaneous injectable solution, Day 51
[23] = Group B: 1 mg/kg subcutaneous injectable solution, Day 58
[24] = Group C: 1 mg/kg topical spot-on with absorption enhancer, Day 2
[25] = Group C: 1 mg/kg topical spot-on with absorption enhancer, Day 9
[26] = Group C: 1 mg/kg topical spot-on with absorption enhancer, Day 16
[27] = Group C: 1 mg/kg topical spot-on with absorption enhancer, Day 23
[28] = Group C: 1 mg/kg topical spot-on with absorption enhancer, Day 30
[29] = Group C: 1 mg/kg topical spot-on with absorption enhancer, Day 37
[30] = Group C: 1 mg/kg topical spot-on with absorption enhancer, Day 44
[31] = Group C: 1 mg/kg topical spot-on with absorption enhancer, Day 51
[32] = Group D: 1 mg/kg topical spot-on with absorption enhancer and spreading agent, Day 2
[33] = Group D: 1 mg/kg topical spot-on with absorption enhancer and spreading agent, Day 9
[34] = Group D: 1 mg/kg topical spot-on with absorption enhancer and spreading agent, Day 16
[35] = Group D: 1 mg/kg topical spot-on with absorption enhancer and spreading agent, Day 23
[36] = Group D: 1 mg/kg topical spot-on with absorption enhancer and spreading agent, Day 30
[37] = Group D: 1 mg/kg topical spot-on with absorption enhancer and spreading agent, Day 37
[38] = Group D: 1 mg/kg topical spot-on with absorption enhancer and spreading agent, Day 44
[39] = Group D: 1 mg/kg topical spot-on with absorption enhancer and spreading agent, Day 51
[40] = Group E: 1 mg/kg topical spot-on in ethyl lactate, Day 2
[41] = Group E: 1 mg/kg topical spot-on in ethyl lactate, Day 9
[42] = Group E: 1 mg/kg topical spot-on in ethyl lactate, Day 16
[43] = Group E: 1 mg/kg topical spot-on in ethyl lactate, Day 23
[44] = Group E: 1 mg/kg topical spot-on in ethyl lactate, Day 30
[45] = Group E: 1 mg/kg topical spot-on in ethyl lactate, Day 37
[46] = Group E: 1 mg/kg topical spot-on in ethyl lactate, Day 44
[47] = Group E: 1 mg/kg topical spot-on in ethyl lactate, Day 51
[48] = topical washing with 2 L of 200 ppm solution

Structure (SMILES): Cc1cc(C2=NOC(c3cc(Cl)cc(Cl)c3)(C(F)(F)F)C2)ccc1C(=O)NCC(=O)NCC(F)(F)F (racemic) [Compound 11-1, 4-[5-(3,5-dichlorophenyl)-5-trifluoromethyl-4,5-dihydroisoxazol-3-yl]-2-methyl-N-[(2,2,2-trifluoro-ethylcarbamoyl)-methyl]-benzamide]
- Side effects [1]: No side effects were observed
- Efficacy against brown dog ticks [2, 7]: 99.4
- Efficacy against brown dog ticks [2, 8]: 99.3
- Efficacy against brown dog ticks [2, 9]: 98.3
- Efficacy against brown dog ticks [2, 10]: 98.2
- Efficacy against brown dog ticks [2, 11]: 98.9
- Efficacy against brown dog ticks [2, 12]: 94.6
- Efficacy against brown dog ticks [2, 13]: 82.0
- Efficacy against brown dog ticks [2, 14]: 82.0
- Efficacy against brown dog ticks [2, 15]: 100
- Efficacy against brown dog ticks [2, 16]: 99.3
- Efficacy against brown dog ticks [2, 17]: 100
- Efficacy against brown dog ticks [2, 18]: 98.8
- Efficacy against brown dog ticks [2, 19]: 99.5
- Efficacy against brown dog ticks [2, 20]: 98.8
- Efficacy against brown dog ticks [2, 21]: 95.1
- Efficacy against brown dog ticks [2, 22]: 88.8
- Efficacy against brown dog ticks [2, 23]: 74.0
- Efficacy against brown dog ticks [2, 24]: 81.9
- Efficacy against brown dog ticks [2, 25]: 98.7
- Efficacy against brown dog ticks [2, 26]: 94.8
- Efficacy against brown dog ticks [2, 27]: 98.2
- Efficacy against brown dog ticks [2, 28]: 96.2
- Efficacy against brown dog ticks [2, 29]: 87.0
- Efficacy against brown dog ticks [2, 30]: 76.5
- Efficacy against brown dog ticks [2, 31]: 55.3
- Efficacy against brown dog ticks [2, 32]: 83.1
- Efficacy against brown dog ticks [2, 33]: 96.1
- Efficacy against brown dog ticks [2, 34]: 98.3
- Efficacy against brown dog ticks [2, 35]: 98.2
- Efficacy against brown dog ticks [2, 36]: 96.2
- Efficacy against brown dog ticks [2, 37]: 94.1
- Efficacy against brown dog ticks [2, 38]: 73.8
- Efficacy against brown dog ticks [2, 39]: 63.4
- Efficacy against brown dog ticks [2, 40]: 70.6
- Efficacy against brown dog ticks [2, 41]: 90.2
- Efficacy against brown dog ticks [2, 42]: 95.9
- Efficacy against brown dog ticks [2, 43]: 91.5
- Efficacy against brown dog ticks [2, 44]: 97.8
- Efficacy against brown dog ticks [2, 45]: 89.2
- Efficacy against brown dog ticks [2, 46]: 79.8
- Efficacy against brown dog ticks [2, 47]: 59.6
- Flea efficacy ([3]; oral gelatin capsules 20 mg/kg): 100%
- Flea efficacy [3, 48]: 100%
- Efficacy against cat fleas [4, 7]: 100
- Efficacy against cat fleas [4, 8]: 100
- Efficacy against cat fleas [4, 9]: 100
- Efficacy against cat fleas [4, 10]: 100
- Efficacy against cat fleas [4, 11]: 100
- Efficacy against cat fleas [4, 12]: 99.6
- Efficacy against cat fleas [4, 13]: 100
- Efficacy against cat fleas [4, 14]: 100
- Efficacy against cat fleas [4, 15]: 100
- Efficacy against cat fleas [4, 16]: 100
- Efficacy against cat fleas [4, 17]: 100
- Efficacy against cat fleas [4, 18]: 100
- Efficacy against cat fleas [4, 19]: 99.6
- Efficacy against cat fleas [4, 20]: 100
- Efficacy against cat fleas [4, 21]: 100
- Efficacy against cat fleas [4, 22]: 100
- Efficacy against cat fleas [4, 23]: 99.7
- Efficacy against cat fleas [4, 24]: 100
- Efficacy against cat fleas [4, 25]: 100
- Efficacy against cat fleas [4, 26]: 100
- Efficacy against cat fleas [4, 27]: 100
- Efficacy against cat fleas [4, 28]: 100
- Efficacy against cat fleas [4, 29]: 100
- Efficacy against cat fleas [4, 30]: 100
- Efficacy against cat fleas [4, 31]: 100
- Efficacy against cat fleas [4, 32]: 100
- Efficacy against cat fleas [4, 33]: 100
- Efficacy against cat fleas [4, 34]: 100
- Efficacy against cat fleas [4, 35]: 100
- Efficacy against cat fleas [4, 36]: 100
- Efficacy against cat fleas [4, 37]: 100
- Efficacy against cat fleas [4, 38]: 100
- Efficacy against cat fleas [4, 39]: 100
- Efficacy against cat fleas [4, 40]: 100
- Efficacy against cat fleas [4, 41]: 100
- Efficacy against cat fleas [4, 42]: 100
- Efficacy against cat fleas [4, 43]: 100
- Efficacy against cat fleas [4, 44]: 100
- Efficacy against cat fleas [4, 45]: 100
- Efficacy against cat fleas [4, 46]: 100
- Efficacy against cat fleas [4, 47]: 100
- pest or weed control at 20 mg/kg ([5]; 1 h, 1 hr after infestation): 78.9%
- pest or weed control at 20 mg/kg ([5]; 24 h, 24 hr after infestation): 96.7%
- pest or weed control at 20 mg/kg ([5]; 48 h, 48 hr after infestation): 97.8%
- Tick efficacy ([6]; oral gelatin capsules 20 mg/kg): 100%
- Tick efficacy [6, 48]: 100%
